Source: patent US11186560B2, “Arthropod repellent chemicals” (The Regents of the University of California, priority 2015, dated 2021)

Key:
Drosophila melanogaster [1] = test: Drosophila melanogaster 2-choice trap assay; format: in vivo; settings: compounds at 5% concentration; 48 hours; negative P.I. indicates repellency
Procedure: In a second type of assay, a Drosophila melanogaster 2-choice trap assay as described previously^4,6 was used with minor modifications. Traps were made with two 1.5 ml microcentrifuge tubes (USA Scientific) and 200 microliter pipette tips (USA Scientific), each cap contained standard cornmeal medium. T-shape piece of filter paper (Whatman #1) was impregnated with 5 ul of acetone (control) or 5 microliters of 5% test odor, diluted in acetone. Traps were placed within a petri dish (100×15 mm, Fisher) containing 10 ml of 1% agarose to provide moisture. Ten wild-type Drosophila melanogaster flies 4-7 days old were used per trial, which lasted 48 hours by which time point nearly all flies in the assays had made a choice and were counted. Preference Index (P.I.)=(number of flies in treated trap−number in control trap)/(number of flies in treated+control traps).

Aedes aegypti [2] = test: Aedes aegypti 2-choice landing assay (two-choice heat assay); format: in vivo; settings: compounds at 3% concentration; female Aedes aegypti; two heat sources at 37 C. as attractants; 5 minute trial
Procedure: In order to test the compounds in mosquitoes, a Two-choice heat assay in Aedes aegypti was performed. A pair of heat sources were prepared using 2 hand warmers fitted into a 100×15 mm petri dish base and covered with 15×15 cm polyester netting secured round the petri dish by a pair or 8 inch plastic cable ties (Gardner Bender, Milwaukee, Wis.) coupling. Excess netting material was trimmed off round the edges of the petri dish. The treatment chemical 500 μl was added at 3% concentration directly onto the netting and the two assembled dishes were placed inside a cage of 20 female A. aegypti mosquitoes. Total numbers of mosquito landings on the net covering of each dish were counted during the assay from video recordings of the 5 minute trial. The solvent and DEET positions were alternated between runs.

Aedes aegypti [3] = test: Aedes aegypti 1-choice landing assay (heat source attractant); format: in vivo; settings: compounds at 3% concentration; female Aedes aegypti; one heat source at 37 C. as attractant
Drosophila melanogaster [4] = test: Drosophila melanogaster T-maze assay; format: in vivo; settings: compounds at 5% concentration; average of 3 trials; negative P.I. indicates repellency
Procedure: T-maze assay was used to test selected compounds. 4-7 day old starved wild-type flies of Drosophila melanogaster (20 males plus 20 females/trial) were tested. Under a chemical hood, 10 ul of solvent and 10 ul of test chemical were applied onto filter paper placed in control tubes and test tubes. The flies were loaded into the elevator of a T-maze apparatus and lowered into position where they could make a choice between the solvent tube and the test chemical tube. After allowing flies to make choice for 1 minute in dark, the elevator was closed and number of flies in each tube was counted. Preference Index (P.I.)=(#flies in test arm−#flies in control arm)/(#flies in test arm+#flies in control arm). The results presented in Table 2 report the average Preference Index from 3 independent trials.

Aedes aegypti females = test: Modified arm-in-cage assay; format: in vivo; settings: 3% 4-methyl piperidine on filter paper adjoining netted landing window of glove
Text: FIG. […] (2a) Control and 4-MP treated gloves; (2b) Mean numbers of landings within minutes 2-5 of the assay. N=4 trials, ˜40 mosquitoes/trial.
The identification of these compounds started with understanding the biochemical, spacial charge density and other biochemical and physical factors aside from straight chemical structure for imparting the activity with existing DEET-like chemical structure and are therefore studying just DEET-like properties there were limits in finding completely novel classes of repellents that are not structurally related to DEET. Additional properties were then added. […] Olfactory avoidance to DEET is active over a short range (˜1 cm) and mosquitoes are not repelled beyond the immediate vicinity. Therefore, a modified arm-in-cage assay was developed where a low concentration of 4-MP can be applied to filter paper pieces adjoining the netted landing window of the glove (FIG. 2a). […]

mosquitoes = settings: cited from earlier work

Row | Compound | P.I. (mean preference index) (Aedes aegypti [2]) | Average % Repellency (Aedes aegypti [3]) [%] | P.I. (mean preference index) (Drosophila melanogaster [4]) | also measured
1 | c1ccc2c(c1)CCCN2 [1,2,3,4-Tetrahydroquinoline] | −0.9965 | 99.82 |  | P.I. (mean preference index) (Drosophila melanogaster [1]): −0.74
2 | CCCCC1CO1 (centres unmarked) [1,2-Epoxyhexane] |  |  | −0.2 | 
3 | CCN1CCCC1=O [1-Ethyl-2-pyrrolidone] |  |  |  | P.I. (mean preference index) (Drosophila melanogaster [1]): −0.12
4 | CC1=CCC=CC1 [1-methyl-1,4-cyclohexadiene] | −0.1584 | 27.01 | −0.76 | 
5 | CC(C)CC1OCC(C)O1 (centres unmarked) [2-Isobutyl-4-methyl-1,3-dioxolane] | −0.2189 | 35.92 | −0.3 | 
6 | CC1CCCO1 (centres unmarked) [2-methyl tetrahydrofuran] | −0.1815 | 29.78 |  | 
7 | C1=COCCC1 [3.4-Dihydro-2H-pyran, 3,4-Dihydro-2H-pyran] |  |  | −0.88 | 
8 | CC1=C(O)C(=O)C(C)O1 (centres unmarked) [4-Hydroxy-2,5-Dimethyl-3(2H)-Furanone] |  |  |  | P.I. (mean preference index) (Drosophila melanogaster [1]): −0.24
9 | CC1CC=CCC1 (centres unmarked) [4-methyl cyclohexene] | −0.8265 | 90.39 |  | 
10 | CC1CCNCC1 [4-methyl piperidine] |  |  |  | Repellency from skin-exposed net window (Aedes aegypti females): effectively repel mosquitoes
11 | CCN(CC)C(=O)c1cccc(C)c1 [DEET, N,N-Diethyl-m-toluamide] |  |  |  | Range over which olfactory avoidance is active (mosquitoes): ~1 cm
12 | C1=COCCC1 [Dihydropyran] | −0.2819 |  |  | 
13 | CCC1=C(O)C(=O)CC1 [Ethyl cyclopentenolone] | −0.7423 | 77.44 |  | 
14 | CC1COC(C)(C)O1 (centres unmarked) [Propylene glycol acetone ketal] |  |  | −0.09 | 
15 | COC(=O)Cc1ccc(C(C)(C)C)cc1 [methyl 2-(4-tert-butylphenyl)acetate] |  |  |  | P.I. (mean preference index) (Drosophila melanogaster [1]): −0.14
16 | Isopropyl Quinoline |  | 96.36 | −0.17 | 
